Data: patent US10793588B2, “Crystal form of sodium-glucose cotransporter 2 inhibitor” (HAINAN XUANZHU PHARMA CO., LTD., priority 2016, dated 2020)

Test: Stability test of crystalline Form I and free compound (properties, relevant substances by HPLC, XRD)
Format: physicochemical
Protocol: The crystalline Form I of the co-crystal of the compound of Formula (1) with L-proline, which was prepared according to the methods in the examples; free compound of Formula (1).
The test samples were placed under conditions of 60° C., 40° C., RH 90%±5%, RH 75%±5%, 4500lx±500lx or UV-Vis for 10 days, […], and the samples were tested for relevant substances and XRD pattern; and the results were compared with those of a sample on the 0th day.
Determination of the relevant substances: the determination was carried out in accordance with High Performance Liquid Chromatography in Appendix V D in Pharmacopoeia of the People's Republic of China (2010) (Volume II).
XRD measurement: the measurement was carried out in accordance with X-Ray Powder Diffraction in Appendix IX F in Pharmacopoeia of the People's Republic of China (2010) (Volume II).

[1] = 0th day (baseline, listed under 60° C.)
[2] = UV-Vis, total illumination ≥1.2 × 10^6 Lux·h, near ultraviolet energy ≥200 w·h/m^2
[3] = conditions that meet the illumination requirement (UV-Vis)

OC[C@H]1O[C@@H](c2ccc(Cl)c(Cc3ccc(O[C@H]4C[C@@H]5C[C@@H]5C4)cc3)c2)[C@H](O)[C@@H](O)[C@@H]1O [free compound of Formula (1), (2S,3R,4R,5S,6R)-2-(3-(4-(((1R,3s,5S)-bicyclo[3.1.0]hexan-3-yl)oxy)benzyl)-4-chlorophenyl)-6-(hydroxymethyl)tetrahydro-2H-pyran-3,4,5-triol]
Relevant substances (%) [1]: 1.35% | XRD [1]: Amorphism | Relevant substances (%) (40° C., 10th day): 1.44% | XRD (40° C., 10th day): Amorphism | Relevant substances (%) (60° C., 10th day): 1.43% | XRD (60° C., 10th day): Amorphism | XRD (RH75% ± 5%, 6th day): Amorphism | Hygroscopicity under humidity conditions (RH90% ± 5% / RH75% ± 5%, 6th day): significant hygroscopic deliquescence | XRD (RH90% ± 5%, 6th day): Amorphism | Properties [2]: Tawny powder | Relevant substances (%) [2]: 9.91% | XRD [2]: Amorphism | Change of property of the sample [3]: changed from an almost white powder to a tawny powder | Increase of relevant substances relative to 0th day [3]: 8.56% | Change of amount of relevant substances (temperature conditions (60° C., 40° C.) for 10 days): increased

O=C(O)[C@@H]1CCCN1.O=C(O)[C@@H]1CCCN1.OC[C@H]1O[C@@H](c2ccc(Cl)c(Cc3ccc(O[C@H]4C[C@@H]5C[C@@H]5C4)cc3)c2)[C@H](O)[C@@H](O)[C@@H]1O [crystalline Form I]
Relevant substances (%) [1]: 0.60% | Relevant substances (%) (40° C., 5th day): 0.67% | Relevant substances (%) (40° C., 10th day): 0.65% | Relevant substances (%) (60° C., 5th day): 0.68% | Relevant substances (%) (60° C., 10th day): 0.62% | Relevant substances (%) (4500 lx ± 500 lx, 5th day): 0.66% | Relevant substances (%) (4500 lx ± 500 lx, 10th day): 0.71% | Relevant substances (%) (RH75% ± 5%, 5th day): 0.66% | Relevant substances (%) (RH75% ± 5%, 10th day): 0.64% | Relevant substances (%) (RH90% ± 5%, 5th day): 0.65% | Relevant substances (%) (RH90% ± 5%, 10th day): 0.63% | Stability compared with the free base of the compound (overall conclusion of the stability test): better stability | Change of property, relevant substances and XRD pattern (temperature, humidity or light conditions for 10 days): did not change significantly
